Measurements: publication PMC8765437, “GSK3640254 Is a Novel HIV-1 Maturation Inhibitor with an Optimized Virology Profile” (Antimicrobial Agents and Chemotherapy, 2022)
Read-outs that look alike come from different tables or passages of the source.

System: NLRepRlucP373S viruses containing Gag SDMs or gag/pr genes from clinical isolates
Experiment: Multiple-cycle replication assay, NLRepRluc reporter viruses in MT-2 cells, luciferase endpoint
Type: cell-based, HIV-1
Description: Multiple-cycle assays using recombinant viruses or clinical isolates were used to assess MI antiviral activity as described previously ([10]). pNLRepRlucP373S (the P373S change is in the Gag gene and converts an outlier polymorphism in the NL4-3 gene to the prevalent amino acid in the population) plasmids containing SDMs in Gag or gag/pr regions from clinical isolates were transfected into HEK 293T cells, and the supernatant containing recombinant virus was harvested after 4 to 5 days. Virus was used to infect MT-2 cells in the presence of a 3-fold serially diluted compound at a final dimethyl sulfoxide (DMSO) concentration of 1%. The inocula of the reporter viruses were determined based on the luciferase activity detected on day 4 postinfection. The MOI (ratio of infectious virions to target cells) of reporter-free laboratory strains and clinical isolates was 0.005, as derived from a tissue culture infectious dose study. Clinical isolates or reporter-free viruses were examined in the reporter CEM-NKR-CCR5-Luc cells or PBMCs at MOIs ranging from 0.005 to 0.01. Each infection started with a drug-free preincubation of the cell-virus mixtures, performed at 37°C and 5% CO2 for either 1 h at 2 times the final cell density (reporter viruses) or 1 h (reporter-free laboratory strains) or 3 h (clinical isolates) using cell pellets in 0.5 mL of medium. After preincubation, cell-virus mixtures were added to compound-containing 96-well plates for a final cell density of either 10,000 (MT-2 cells for reporter viruses), 20,000 (MT-2 and PM1 cells for reporter-free laboratory strains), 200,000 (PBMCs for clinical isolates), or 500,000 (CEM-NKR-CCR5-Luc for reporter-free laboratory strains) cells per well. The CEM-NKR-CCR5-Luc cell assay was performed in the presence of Polybrene (10 μg/mL). Virus growth was determined on days 4 to 5 postinfection for reporter variants or days 5 to 11 for the other viruses. The reporter viruses were detected by a luciferase assay according to manufacturer protocols (Brite-Glo luciferase kit [Promega] for CEM-NKR-CCR5-Luc cells and Dual-Luciferase Reporter 1000 assay system [Promega] for the other cells), and luminescence was detected on a Wallac Trilux. The growth of clinical isolates in PBMCs was quantitated by reverse transcriptase activity in a 96-well scintillation proximity assay (SPA). Twenty microliters of culture supernatants was mixed with 40 μL of reaction cocktail (62.5 mM Tris-HCl [pH 7.8], 100 mM KCl, 0.0625% NP-40, 2.5 mM dithiothreitol [DTT], 6.25 mM MgCl2, 1 mM EGTA, 6.25 μg/mL of poly rA, 2.5 μg/mL of streptavidin SPA beads prebound with biotinylated-dT12-18, and 1 μCi of [^3H]TTP). Mixtures were incubated at 37°C for ∼3 h and quenched with 100 μl of 0.25 M EDTA per well. Luminescence was detected on a Wallac Trilux programmed for tritium counting with SPA beads in opaque plates. The growth of the reporter-free laboratory M-tropic strains and clinical isolates was monitored by a p24 enzyme-linked immunosorbent assay (ELISA; PerkinElmer Life Sciences, Waltham, MA) performed on culture supernatants. […] A 1:1,000 dilution of cell supernatant in PBS was generally observed to fall in the dynamic range of the endpoint signal.
Maximal percent inhibition values were calculated as MPI = 100 – (mean signals at the 2 highest concentrations of compound/mean signal of 2 no-drug control wells) × 100.

[1] = Human immunodeficiency virus 1, MT2, V370A, 10% FBS
[2] = Human immunodeficiency virus 1, MT2, Wild type, 10% FBS

In the case of `C=C(C)[C@@H]1CC[C@]2(NCCN3CCS(=O)(=O)CC3)CC[C@]3(C)[C@H](CC[C@@H]4[C@@]5(C)CC=C(C6=CC[C@@](CF)(C(=O)O)CC6)C(C)(C)[C@@H]5CC[C@]43C)[C@@H]12` [GSK’254], the MPI (A366V-containing viruses) is reported as −86 to 400%, the EC50 (Human immunodeficiency virus 1, MT2, 92BR018-genotyped NLRepRlucP373S virus) is reported as 1 nM and the EC50 (Human immunodeficiency virus 1, MT2, 93BR008-genotyped NLRepRlucP373S virus) is reported as 2 nM. The EC50 (Human immunodeficiency virus 1, MT2, R361K/V362I/L363M) was 3 nM, the EC50 (Human immunodeficiency virus 1, MT2, Table S1, SDM R361K/V362I/L363M) was 3 nM and the EC50 (Human immunodeficiency virus 1, MT2, Table S1, SDM S368R/V370A) was 1 nM. For the same compound, the EC50 (Human immunodeficiency virus 1, MT2, Table S1, SDM V362I/V370A) was 3 nM, the EC50 (Human immunodeficiency virus 1, MT2, Table S1, SDM V370A) was 2 nM and the EC50 (Human immunodeficiency virus 1, MT2, Table S1, SDM V370A/ΔT371) was 3 nM. For the same compound, the EC50 (Human immunodeficiency virus 1, MT2, Table S1, SDM ΔV370) was 3 nM, the EC50 (Human immunodeficiency virus 1, MT2, Table S1, subtype B SDM Wild-type (V, QVT)) was 3 nM and the EC50 (Human immunodeficiency virus 1, MT2, V362I/V370A) was 3 nM. It also gave an EC50 [1] of 1.5 nM, an EC90 [1] of 3 nM and an EC50 [2] of 1.4 nM. It also gave an EC90 [2] of 3.6 nM, an EC50 (Human immunodeficiency virus 1, MT2, read-out: EC50 (range), Subtype B gag/pr viruses, n=24) of 0.5 to 7 nM and an EC50 (Human immunodeficiency virus 1, MT2, read-out: EC50 (range), Subtype C gag/pr viruses, n=11) of 1 to 2 nM. It also gave an EC50 (Human immunodeficiency virus 1, MT2, read-out: EC50 (range), V362I only viruses, n=9) of 1 to 7 nM, an EC50 (Human immunodeficiency virus 1, MT2, read-out: EC50 (range), Wild-type subtype B, n=5) of 0.5 to 2 nM and an EC50 (Human immunodeficiency virus 1, MT2, read-out: Mean ± SD EC50, A366V-containing viruses (A366V, V362I/A366V, V362I/A366V/V370M, A366V/V370M)) greater than 3000 nM. For the same compound, the EC50 (Human immunodeficiency virus 1, MT2, read-out: Mean ± SD EC50, SDM A326T/V362I/V370A) was 26 ± 70 nM, the EC50 (Human immunodeficiency virus 1, MT2, read-out: Mean ± SD EC50, SDM A364V) was 274 ± 505 nM and the EC50 (Human immunodeficiency virus 1, MT2, read-out: Mean ± SD EC50, SDM R361K/V362I/L363M) was 3 ± 1 nM. The EC50 (Human immunodeficiency virus 1, MT2, read-out: Mean ± SD EC50, SDM T332S/V362I/prR41G) was 7 ± 4 nM, the EC50 (Human immunodeficiency virus 1, MT2, read-out: Mean ± SD EC50, SDM V362I/V370A) was 3 ± 1 nM and the EC50 (Human immunodeficiency virus 1, MT2, read-out: Mean ± SD EC50, SDM V370A) was 2 ± 1 nM. For the same compound, the EC50 (Human immunodeficiency virus 1, MT2, read-out: Mean ± SD EC50, SDM Wild type) was 3 ± 2 nM, the EC50 (Human immunodeficiency virus 1, MT2, read-out: Mean ± SD EC50, SDM ΔV370) was 3 ± 1 nM and the EC50 (Human immunodeficiency virus 1, MT2, read-out: Mean ± SD EC50, Subtype B gag/pr viruses, n=24) was 1.9 ± 1.5 nM. It also gave an EC50 (Human immunodeficiency virus 1, MT2, read-out: Mean ± SD EC50, Subtype C gag/pr viruses, n=11) of 1.2 ± 0.4 nM, an EC50 (Human immunodeficiency virus 1, MT2, read-out: Mean ± SD EC50, V362I only viruses, n=9) of 2.7 ± 2 nM and an EC50 (Human immunodeficiency virus 1, MT2, read-out: Mean ± SD EC50, V362I/ΔV370 virus, n=1) of 3 nM. It also gave an EC50 (Human immunodeficiency virus 1, MT2, read-out: Mean ± SD EC50, Wild-type subtype B (V362, Q369, V370, T371), n=5) of 1.1 ± 0.5 nM, an EC50 (Human immunodeficiency virus 1, MT2, read-out: Median EC50, Subtype B gag/pr viruses, n=24) of 1 nM and an EC50 (Human immunodeficiency virus 1, MT2, read-out: Median EC50, Subtype C gag/pr viruses, n=11) of 1 nM. It also gave an EC50 (Human immunodeficiency virus 1, MT2, read-out: Median EC50, V362I only viruses, n=9) of 2 nM, an EC50 (Human immunodeficiency virus 1, MT2, read-out: Median EC50, Wild-type subtype B, n=5) of 1 nM and an EC90 (Human immunodeficiency virus 1, MT2, read-out: PBA EC90, Table S1, SDM A326T/V362I/V370A) of 117 nM. The EC90 (Human immunodeficiency virus 1, MT2, read-out: PBA EC90, Table S1, SDM R361K/V362I/L363M) was 50 nM, the EC90 (Human immunodeficiency virus 1, MT2, read-out: PBA EC90, Table S1, SDM S368R/V370A) was 9 nM and the EC90 (Human immunodeficiency virus 1, MT2, read-out: PBA EC90, Table S1, SDM T332S/V362I/PrR41G) was 77 nM. For the same compound, the EC90 (Human immunodeficiency virus 1, MT2, read-out: PBA EC90, Table S1, SDM V362I/V370A) was 18 nM, the EC90 (Human immunodeficiency virus 1, MT2, read-out: PBA EC90, Table S1, SDM V370A) was 21 nM and the EC90 (Human immunodeficiency virus 1, MT2, read-out: PBA EC90, Table S1, SDM V370A/ΔT371) was 40 nM. It also gave an EC90 (Human immunodeficiency virus 1, MT2, read-out: PBA EC90, Table S1, SDM ΔV370) of 57 nM, an EC90 (Human immunodeficiency virus 1, MT2, read-out: PBA EC90, Table S1, subtype B SDM Wild-type (V, QVT)) of 24 nM and an EC90 (Human immunodeficiency virus 1, MT2, read-out: PBA EC90, subtype B gag/pr 4NRR (Wild-type)) of 25 nM. The EC90 (Human immunodeficiency virus 1, MT2, read-out: PBA EC90, subtype B gag/pr 28-MDR (Wild-type)) was 37 nM, the EC90 (Human immunodeficiency virus 1, MT2, read-out: PBA EC90, subtype B gag/pr 92BR014 (V370M)) was 11 nM and the EC90 (Human immunodeficiency virus 1, MT2, read-out: PBA EC90, subtype B gag/pr 92BR018 (V, QAΔ)) was 26 nM. The EC90 (Human immunodeficiency virus 1, MT2, read-out: PBA EC90, subtype B gag/pr 92TH014 (V362I)) was 12 nM, the EC90 (Human immunodeficiency virus 1, MT2, read-out: PBA EC90, subtype B gag/pr 92TH026 (V362I)) was 32 nM and the EC90 (Human immunodeficiency virus 1, MT2, read-out: PBA EC90, subtype B gag/pr 92US072 (V362I)) was 21 nM. For the same compound, the EC90 (Human immunodeficiency virus 1, MT2, read-out: PBA EC90, subtype B gag/pr 92US729 (Wild-type)) was 13 nM, the EC90 (Human immunodeficiency virus 1, MT2, read-out: PBA EC90, subtype B gag/pr 93BR008 (V362I)) was 30 nM and the EC90 (Human immunodeficiency virus 1, MT2, read-out: PBA EC90, subtype B gag/pr 93BR017 (V, QAΔ)) was 20 nM. The EC90 (Human immunodeficiency virus 1, MT2, read-out: PBA EC90, subtype B gag/pr 93BR022 (V, QAΔ)) was 28 nM, the EC90 (Human immunodeficiency virus 1, MT2, read-out: PBA EC90, subtype B gag/pr 93BR024 (V362I)) was 180 nM and the EC90 (Human immunodeficiency virus 1, MT2, read-out: PBA EC90, subtype B gag/pr 93TH0647 (V362I)) was 23 nM. The EC90 (Human immunodeficiency virus 1, MT2, read-out: PBA EC90, subtype B gag/pr 93US141 (V362I)) was 37 nM.
